Values joined by “and” are separate entries in the source; they are usually repeats but may differ in a detail not shown here. Identical values can stand only once. Ends that are not written are not given here.
Experiments:
bovine MC4-R = target: T1, bovine MC4-R (Bos taurus, UniProt Q9GLJ8); assay: CRE-luciferase reporter assay in human embryonic kidney 293 cells transiently co-transfected with bovine MC4-R; type: cell-based; conditions: for Luciferase Activity: 18 hrs, transiently transfected human embryonic kidney 293 cells
T1 construct: expressed in transfected cells; host or cells: human embryonic kidney 293 cells (ATCC CRL 1573), transient co-transfection of pcDNA3.1-bMC4R with the pGL2-promoter/CRE luciferase reporter
T1 sequence (Q9GLJ8 whole entry): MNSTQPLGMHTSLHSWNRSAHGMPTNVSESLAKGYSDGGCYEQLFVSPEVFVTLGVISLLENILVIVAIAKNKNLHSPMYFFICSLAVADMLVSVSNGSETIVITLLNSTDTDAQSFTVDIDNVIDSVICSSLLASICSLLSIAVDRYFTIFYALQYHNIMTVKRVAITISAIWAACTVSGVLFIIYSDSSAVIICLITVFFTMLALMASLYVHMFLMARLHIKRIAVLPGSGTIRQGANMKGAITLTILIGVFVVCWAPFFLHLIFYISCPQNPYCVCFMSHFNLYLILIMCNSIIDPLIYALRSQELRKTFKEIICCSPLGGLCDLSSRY
Experimental: The phagemid pBluescript-bMC4-R (10 μg) containing a full-length (1.9 kb) bovine MC4-R cDNA (SEQ ID NO:1) was digested using restriction endonucleases EcoRI (20 units, Gibco-BRL) and XhoI (20 units, Gibco-BRL) at 37° C. for 1 hr following the supplier's instructions. The resulting 1.9 kb bovine MC4-R cDNA fragment was then subcloned into the mammalian cell expression plasmid pcDNA3.1(+) (Invitrogen, Carlsband, Calif.) following standard cloning procedures (Sambrook et al., 1989, Molecular Cloning, A Laboratory Manual, Second Edition, Cold Spring Harbor Laboratory Press). The resulting bovine MC4-R expression plasmid, pcDNA3.1-bMC4R, was then used in conjunction with a reporter plasmid, pGL2-promoter/CRE (cyclic AMP activated transcription binding protein response element), to transiently co-transfect human embryonic kidney 293 cells (ATCC CRL 1573) using the LipofectAMINE PLUS reagent kit (Gibco-BRL, catalog no. 10964-013) following the supplier's instructions.
The pGL2-promoter/CRE plasmid, containing tandem cAMP activated transcription binding protein response elements from the rat somatostatin gene (Vallejo, et al., 1992, J. Biol. Chem. 267(18):12868-12875) and human chorionic gonadotropin (hCG) gene (Deutsch, et al., 1987, J. Biol. Chem. 262(25):12169-12174), was prepared following standard cloning procedures (Sambrook et al., supra). In brief, the plasmid was constructed by inserting a double stranded oligonucleotide linker, CRE-2 (SEQ ID NO:22), containing the rat somatostatin CRE sequence (5′-[…]-3′; SEQ ID NO:20), the human chorionic gonadotropin (hCG) CRE sequence (5′-AAATTGACGTCATGGTAA-3′; SEQ ID NO:21), and MluI and BglII cohesive ends, into the MluI and BglII sites, respectively, of plasmid pGL2-promoter (Promega, Madison, Wis., catalog no. E1631). The CRE-2 linker had the structure:
The CRE-2 oligonuceotide linker was prepared by first synthesizing the CREA and CREB oligonucleotides, including the MluI and BglII cohesive ends, using a DNA synthesizer Model 370 from PE-Biosystems (Foster City, Calif.). […]

[1] = target: bovine melanocortin 4 receptor protein (MC4-R) (bovine); assay: cell-based or functional assay

Activation of cloned bovine MC4-R expressed in 293 cells (bovine MC4-R; human embryonic kidney 293 cells) | Luciferase Activity (bovine MC4-R; α-MSH 1 nM) | Luciferase Activity (bovine MC4-R; α-MSH 10 nM) | Luciferase Activity (CRE-luciferase reporter, 293 cells), 0 nM α-MSH (baseline without ligand) [1] | Luciferase Activity (CRE-luciferase reporter, 293 cells), 1 nM α-MSH [1] | Luciferase Activity (CRE-luciferase reporter, 293 cells), 10 nM α-MSH [1] | Molecule
activated | 24.80 and 26.67 | 35.13 and 37.13 | – | – | – | α-MSH
– | – | – | 8.19 and 7.78 | 24.8 and 26.7 | 35.1 and 37.1 | SYSMEHFRWGKPV (peptide, UniProt P01189 138-150, looked up, ends and bridges not checked) [human α-MSH]

Reference: US20030082678A1, “Methods and compositions for regulating body weight in bovine species” (priority 2001, published 2003)
